Experimental data taken from patent US9920092B1, “Composition having anti-oxidant, anti-aging, and autophagy activities and uses thereof” (Incospharm Corporation, priority 2017, dated 2018).

Tests used:
[1] = test system: human epidermal keratinocyte cells; test: Intracellular ROS by DCFH-DA dye and FACS scanning after H2O2; type: cell-based; settings: 100 uM pre-treatment for 48 hours, 10 uM H2O2 10 minutes, FIG. 4
Description: In order to measure an intercellular anti-oxidant activity of the compound represented by Structural Formula 1 according to the present invention, an amount of intracellular reactive oxygen species (ROS) was measured using 6-carboxy-2′,7′-dichlorofluorescein diacetate (DCFH-DA) dye and fluorescence activated cell sorter (FACS) scanning.
As a specific experimental method, human epidermal keratinocyte cells (Gibco BRL) were uniformly seeded onto a 600 culture dish (3×10^5 cells/dish) and cultured in an epilife medium (Gibco BRL) containing human keratinocyte growth supplement (HKGS, Gibco BRL) at 37° C. in a 5% CO2 incubator for 24 hours. Thereafter, the test materials (H2O2, vitamin C, and the compound represented by Structural Formula 1) were each dissolved in water at a concentration of 10 mM to prepare a concentrate, the prepared concentrate was diluted so as to have a concentration of 100 uM using the medium and put into a culture dish to treat the cells. Then, culturing was performed for 48 hours, and after the culturing was terminated, the medium was removed and the resultant was washed, thereby preparing a subsequent experiment. Next, 10 uM hydrogen peroxide was added thereto, the culturing was performed for 10 minutes, the resultant was washed again. […]

[2] = test system: genes associated with anti-oxidation and autophagy; test: cDNA microarray of genes associated with anti-oxidation and autophagy; type: cell-based
Description: (§1) In order to find a cause of increasing an intracellular anti-oxidant activity by treatment with the compound represented by Structural Formula 1, cDNA microarray was performed, thereby confirming that transcription of several kinds of important genes associated with anti-oxidation and autophagy was increased. Proteins for the selected genes were quantified by western blot.

[3] = ABTS radical scavenging assay (in-vitro anti-oxidant activity); type: biochemical; settings: absorbance at OD734 after 30 minutes; FIG. 3
Description: In order to measure in-vitro anti-oxidant activity of the compound represented by Structural Formula according to the present invention, ABTS radical scavenging assay was performed. When 2,2′-azino-bis-(3-ethylbenzothiazoline-6-sulfonic acid (ABTS) reacts with potassium persulfate, ABTS^+, which is an active cation, is formed, but in the case in which an anti-oxidant material is present in a test sample, ABTS^+ is removed by anti-oxidant activity, a greenish blue color, which is a peculiar color of ABTS^+, is decolorized, which may be measured as an absorbance value, thereby making it possible to evaluate the anti-oxidant activity.
As a specific experimental method, after mixing ABTS diammonium salt (7 mM) and potassium persulfate (2.45 mM) with each other in distilled water in order to activate stabilized ABTS diammonium salt, a reaction was carried out at room temperature for 16 hours, thereby forming an ABTS radical. After diluting the resultant in a phosphate buffer solution (PBS) to prepare a reaction solution so that an OD734 value was about 1.5, the reaction solution was mixed with vitamin C (Vit C), pyrrolidone carboxylic acid (PCA), or the compound represented by Structural Formula 1 disclosed in the present invention to induce a reaction. After 30 minutes, an amount of the remaining activated ABTS radical was analyzed by measuring absorbance at OD734.

[4] = test system: human epidermal keratinocyte cells; test: Cell protection effect against H2O2 oxidative stress (MTT); type: cell-based; settings: then 1 mM H2O2 4 hours
Description: Through the results in Examples 2 to 6, it was confirmed that expression of the anti-oxidant proteins and the autophagy-related proteins in cells was increased by the compound represented by Structural Formula 1, and thus, autophagy in the cells was activated. Therefore, in order to confirm whether or not activation of autophagy as described above may protect cells from cytotoxicity caused by ROS, follow-up research into a cell protection effect was conducted.
As a specific experiment method, after treating human epidermal keratinocyte cells (Gibco BRL) with respective test materials (vitamin C and the compound represented by Structural Formula 1) at 0.1 mM or 1 mM, respectively, while culturing the cells in a 96-well culture dish, the cells were cultured for 24 hours or 48 hours, the resultant was washed, and 1 mM H2O2 was added thereto, and additional culturing was performed for 4 hours. Thereafter, each of the wells was washed, 10 ul of 3-(4,5-dimethylthiazol-2-yl)-2,5-diphenyltetrazolium bromide (MTT) dissolved in PBS (5 mg/ml) was added to each of the wells, and a reaction was carried out at 37° C. under a 5% CO2 condition. Thereafter, a supernatant was carefully removed, MTT formazan precipitated in the cells was dissolved in 100 ul of DMSO, and then absorbance at OD570 was measured using an enzyme-linked immunosorbent assay (ELISA) reader.

[5] = test system: human epidermal keratinocyte cells; test: LC3 puncta assay (confocal microscope); type: cell-based; settings: 100 uM, 48 hours, anti-LC3 immunostaining; FIG. 7
Description: As a specific experimental method, after 200 ul of poly-L-lysine (sigma) was put into each well of a 15 ul slide glass (Ibidi) and a reaction was carried out at room temperature for 30 minutes, followed by coating, human epidermal keratinocyte cells (Gibco BRL) were cultured and treated with respective test materials (rapamycin, compound represented by Structural Formula 1, and vitamin C) at a concentration of 100 uM. After the culturing for 48 hours was terminated, a medium was removed, and the cultured cells were fixed and blocked using formalin. Thereafter, the cells were labeled with anti-LC3 (Abfrontier) and anti-rabbit IgG-FITC (sigma), nucleus was stained with 4′,6′-diamidine-2′-phenylindole dihydrochloride (DAPI), and then, whether or not a puncta was formed in the cells was confirmed using a confocal microscope.

[6] = test system: human epidermal keratinocyte cells; test: Western blot of anti-oxidant and autophagy-related protein expression; type: cell-based; settings: 50, 100, or 200 um, 48 hours
Description: as §1
As a specific experimental method, after treating human epidermal keratinocyte cells (Gibco BRL) with the compound represented by Structural Formula 1 at a concentration of 50, 100, or 200 um while culturing the cells in a 600 culture dish, culturing was performed for 48 hours. After the culturing was terminated, a medium was removed, a RIPA lysis buffer containing protease inhibitor cocktail (2 ug/ml aprotinin, 5 ug/ml leupeptin, 1 ug/ml pepstatin A, 1 mM PMSF, 5 mM EDTA and 1 mM EGTA) was added thereto, thereby obtaining an entire cell homogenate. Thereafter, total proteins were quantified through microBCA assay (SMART micro BCA protein assay kit, Intron biotechnology), the cell homogenate (10 to 20 ug) was loaded on a SDS-PAGE gel, and respective proteins were isolated by electrophoresis and moved to a nitrocellulose membrane. […]

[7] = test system: human dermal fibroblast cells; test: Electron microscopy assay of autophagy structures; type: cell-based; settings: 50 uM, 24 hours; FIGS. 8 and 9
Description: As a specific experimental method, after treating human dermal fibroblast cells with the compound represented by Structural Formula 1 at a concentration of 50 uM while culturing the cells, the culturing was performed for 24 hours. After the culturing was terminated, the cells were fixed, a paraffin block was prepared, and then, cell images were analyzed using an electron microscope.
An autophagy pathway starts from formation of an isolated precursor membrane having a cup shape, referred to as phagophore. The phagophore may form a double membrane […] known as autophagosome through initiation, nucleation, elongation, and closure processes. The autophagosome carries condensed proteins, organelles or pathogenic bacteria in damaged cells to lysosome in a captured state, and fused with lysosome to form autophagolysosome. The autophagolysosome decomposes the captured constituents in an acidic environment mediated by acid hydrolase.

Structure (SMILES)	amount of intracellular ROS formed by treatment with H2O2 [1]	transcription of genes associated with anti-oxidation and autophagy [2]	scavenging activity on the activated ABTS radical [3]	cell viability ([4]; 0.1 mM or 1 mM, pre-treatment for 24 hours, FIG. 10)	cell viability ([4]; 0.1 mM or 1 mM, pre-treatment for 48 hours, FIG. 11)	formation of LC3 puncta in the cells [5]	expression of proteins having high anti-oxidant activities (Prx2 monomer, Prx3, HSP70 based Grp75, HSP90B1, EPHX2, stanniocalcin2) ([6]; FIG. 5)	expression of proteins important in autophagy and detoxification activities (BiP, FoxO1, sirtuin5) ([6]; FIG. 6)	number of autophagolysosome [7]	number of autophagosome (increase by treatment) [7] [times]	number of phagophore [7]	cell viability ([4]; 1 mM, pre-treatment for 24 hours, FIG. 10)	cell viability ([4]; 1 mM, pre-treatment for 48 hours, FIG. 11)	viability at 100 µM ([4]; Homo sapiens, Keratinocyte, 0.1 mM, pre-treatment for 24 hours, FIG. 10) [%]
O=C(O)CN(CCCC[C@H](NC(=O)[C@H](CCCCN(CC(=O)O)CC(=O)O)N(CC(=O)O)CC(=O)O)C(=O)O)CC(=O)O [2-[2,6-bis-(bis-carboxymethyl-amino)-hexanoyl-amino]-6-(bis-carboxymethyl-amino)-hexanoic acid]	almost disappeared	increased	concentration-dependent scavenging activity	improved	improved	a large amount of a LC puncta	increased	increased	significantly increased	≥ 2	significantly increased			
O=C1O[C@H]([C@@H](O)CO)C(O)=C1O [vitamin C, reference compound]	not decreased		concentration-dependent scavenging activity			not increased						rather deteriorated	rather deteriorated	~95
